In patent US7632861B2, “Substituted heterocyclic ethers and their use in CNS disorders” (Bristol-Myers Squibb Company, priority 2007, dated 2009) one finds IC50 data, which are given here for 32 compounds.

The target in one assay is T1, NK-1 (Homo sapiens, UniProt P25103).
T1 construct: endogenous in cells; host or cells: U373 cells (crude membranes)
In words: NK1 radioligand binding assay ([125I]Substance P, U373 cell membranes). Conditions: 1 hour at room temperature. The procedure: (§1) NK-1 Binding assay. Crude membrane suspensions were prepared for the NK1 and SERT radioligand binding assays from U373 cells or recombinant HEK-293 cells expressing hSERT, respectively. Cells were harvested from T-175 flasks as follows. The medium is removed from the flasks and the cells rinsed with HBSS without Ca and without Mg. The cells are then incubated for 5-10 minutes in 10 mM Tris-Cl, pH 7.5, 5 mM EDTA before the cells are lifted with a combination of pipetting and scraping, as needed. To prepare membranes, the cell suspension is collected into centrifuge bottles and homogenized for 30 seconds with a Polytron homogenizer. The suspension is centrifuged for 30 min @ 32,000×g, 4° C., then the supernatant is decanted and the pellet resuspended and homogenized in 50 mM Tris-Cl, pH 7.5, 1 mM EDTA for 10 seconds. The suspension is then centrifuged again for 30 min @ 32,000×g, 4° C. The supernatant is decanted and the pellet resuspended in 50 mM Tris-Cl, pH 7.5, 1 mM EDTA and briefly homogenized. A Bradford assay (Bio-rad) is performed and the membrane preparation diluted to 2 mg/ml with 50 mM Tris-Cl, pH 7.5, 1 mM EDTA. Aliquots are prepared, and then frozen and stored at −80° C.
NK1 radioligand binding assay. Compounds are dissolved in 100% DMSO at a concentration 100× the desired highest assay concentration, serially diluted 1:3 in 100% DMSO, and 0.6 ul/well of each solution is dispensed to a Nunc polypropylene, round bottom, 384 well plate. 100% inhibition is defined with 0.6 ul/well of 1 mM L-733,060 (Sigma L-137) dissolved in DMSO. 30 ul/well of a 2×U373 membrane preparation (267 ug/ml in 100 mM Tris-Cl, pH 7.5, 6 mM MgCl2, 0.2% (v/v) Sigma mammalian protease inhibitor cocktail (Sigma P-8340), and 4 ug/ml chymostatin, Sigma C-7268) and 30 ul/well of a 2×radioligand solution (400 pM [^125I]Substance P (Perkin Elmer NEX-190) in 1% (w/v) BSA (Sigma A-2153), 0.1 mg/ml bacitracin, Sigma B-0125) are added to the well and the reaction incubated for 1 hour at room temperature. The contents of the assay plate are then transferred to a Millipore MultiscreenHTS GF/B filter plate which has been pretreated with 0.5% PEI for at least one hour. The plate is vacuum filtered and washed with 7 washes of 100 ul/well of 20 mM Tris-Cl, pH 7.5, 0.5% (w/v) BSA chilled to 4° C. The filtration and washing is completed in less than 90 s. The plates are air-dried overnight, 12 ul/well of MicroScint scintillation fluid added, and the plates counted in a Trilux.
(§2) Data analysis. The raw data are normalized to percent inhibition using control wells defining 0% (DMSO only) and 100% (selective inhibitor) inhibition which are run on each plate. Each plate is run in triplicate, and the concentration response curve thus generated is fit using the four-parameter dose response equation, Y=Bottom+(Top-Bottom)/(1+10^((LogIC50-X)*HillSlope)) in order to determine the IC50 value for each compound. The radioligand concentration chosen for each assay corresponds to the Kd concentration determined through saturation binding analysis for each assay.

For a further assay, the target named is T2, hSERT (Homo sapiens, UniProt P31645).
T2 construct: expressed in transfected cells; host or cells: HEK-293 cells (crude membranes)
Put plainly: SERT radioligand binding assay ([125I]RTI-55, HEK-hSERT membranes). Conditions: [125I]RTI-55, 1 hour at room temperature. Here is the method: as §1
SERT radioligand binding assay. Compounds are dissolved in 100% DMSO at a concentration 100× the desired highest assay concentration, serially diluted 1:3 in 100% DMSO, and 0.4 ul/well of each solution is dispensed to a Nunc polypropylene, round bottom, 384 well plate. 100% inhibition is defined with 0.4 ul/well of 1 mM fluoxetine (Sigma F-132) dissolved in DMSO. 20 ul/well of a 2×HEK-hSERT membrane preparation (15 ug/ml in 50 mM Tris-Cl, pH 7.5, 120 mM NaCl, 5 mM KCl) and 20 ul/well of a 2×radioligand solution (520 pM [^125I]RTI-55 (Perkin-Elmer NEX-272) in 50 mM Tris-Cl, pH 7.5, 120 mM NaCl, 5 mM KCl) are added to each well and the reaction incubated for 1 hour at room temperature. The contents of the assay plate are then transferred to a Millipore MultiscreenHTS GF/B filter plate which has been pretreated with 0.5% PEI for at least one hour. The plate is vacuum filtered and washed with 7 washes of 100 ul/well of 50 mM Tris-Cl, pH 7.5, 120 mM NaCl, 5 mM KCl chilled to 4° C. The filtration and washing is completed in less than 90 s. The plates are air-dried overnight, 12 ul/well of MicroScint scintillation fluid added, and the plates counted in a Trilux.
as §2

T1 sequence (P25103 whole entry): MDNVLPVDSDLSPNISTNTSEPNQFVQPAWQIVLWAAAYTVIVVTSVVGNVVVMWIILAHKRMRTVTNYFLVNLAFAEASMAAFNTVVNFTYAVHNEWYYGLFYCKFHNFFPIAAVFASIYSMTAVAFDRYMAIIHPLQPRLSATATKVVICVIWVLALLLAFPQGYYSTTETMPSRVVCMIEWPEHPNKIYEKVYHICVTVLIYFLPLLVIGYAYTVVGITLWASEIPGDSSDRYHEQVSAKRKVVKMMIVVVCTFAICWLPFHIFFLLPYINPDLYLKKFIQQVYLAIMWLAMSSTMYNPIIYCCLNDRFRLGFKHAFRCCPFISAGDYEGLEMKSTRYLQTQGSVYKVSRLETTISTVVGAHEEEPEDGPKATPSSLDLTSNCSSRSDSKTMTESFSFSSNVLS
T2 sequence (P31645 whole entry): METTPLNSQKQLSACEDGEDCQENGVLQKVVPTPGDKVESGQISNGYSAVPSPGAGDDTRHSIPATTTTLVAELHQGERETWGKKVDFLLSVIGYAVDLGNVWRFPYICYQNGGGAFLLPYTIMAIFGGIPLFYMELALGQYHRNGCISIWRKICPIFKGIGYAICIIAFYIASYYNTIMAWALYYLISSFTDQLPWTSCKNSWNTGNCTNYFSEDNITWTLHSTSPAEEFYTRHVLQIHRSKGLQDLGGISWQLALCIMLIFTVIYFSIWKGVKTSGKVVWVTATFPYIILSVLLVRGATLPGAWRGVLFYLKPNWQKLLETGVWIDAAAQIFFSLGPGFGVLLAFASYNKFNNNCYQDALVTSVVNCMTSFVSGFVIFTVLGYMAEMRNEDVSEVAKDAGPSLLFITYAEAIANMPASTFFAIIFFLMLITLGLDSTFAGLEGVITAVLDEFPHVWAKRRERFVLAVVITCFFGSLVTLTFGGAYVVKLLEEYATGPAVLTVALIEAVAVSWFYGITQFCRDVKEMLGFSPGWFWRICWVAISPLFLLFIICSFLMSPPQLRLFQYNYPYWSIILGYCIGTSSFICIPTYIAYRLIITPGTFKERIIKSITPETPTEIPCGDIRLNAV

In the case of `NCCC1(COCc2cc(C(F)(F)F)cc(C(F)(F)F)c2)OCCc2ccccc21` (stereo not shown) [Example 39, 2-(1-((3,5-Bis(trifluoromethyl)benzyloxy)methyl)isochroman-1-yl)ethanamine], the IC50 on NK-1 and on hSERT was 0.01 to 100 nM throughout.
Turning to `CC(OCC1(CCN)OCc2ccccc21)c1cc(Br)cc(C(F)(F)F)c1` (stereo not shown) [Example 28], the IC50 was 0.01 to 100 nM on NK-1 and above 300 nM at hSERT.
Take `NCCC1(COCc2cc(-c3ccc(F)cc3)cc(C(F)(F)F)c2)OCc2ccccc21` (stereo not shown) [Example 9]: the values for the IC50 on NK-1 and at hSERT were 0.01 to 100 nM and 100 to 300 nM, respectively.
As for `COc1ccc(-c2cc(COCC3(CCN)OCc4ccccc43)cc(C(F)(F)F)c2)cc1` (stereo not shown) [Example 7], the figures for the IC50 on NK-1 and at hSERT were 0.01 to 100 nM and above 300 nM, respectively.
In the case of `NCCCC1(COCc2cc(C(F)(F)F)cc(C(F)(F)F)c2)OCc2ccccc21` (stereo not shown) [Example 37, 3-(1-((3,5-Bis(trifluoromethyl)benzyloxy)methyl)-1,3-dihydroisobenzofuran-1-yl)propan-1-amine], the IC50 at NK-1 and on hSERT was 0.01 to 100 nM throughout.
For `NCCC1(COCc2cc(Cl)cc(Br)c2)OCc2ccccc21` (stereo not shown) [Example 32], the IC50 on NK-1 and on hSERT was 0.01 to 100 nM each time.
Turning to `N#Cc1ccccc1-c1cc(COCC2(CCN)OCc3ccccc32)cc(C(F)(F)F)c1` (stereo not shown) [Example 6], the IC50 on NK-1 and on hSERT was 100 to 300 nM throughout.
On to `NCCC1(COCc2cc(Br)cc(C(F)(F)F)c2)OCc2ccccc21` (stereo not shown) [Example 1, 2-(1-((3-bromo-5-(trifluoromethyl)benzyloxy)methyl)-1,3-dihydroisobenzofuran-1-yl)ethanamine], for which the IC50 on NK-1 and on hSERT was 0.01 to 100 nM throughout.
Turning to `N#Cc1ccc2c(c1)COC2(CCN)COCc1cc(Br)cc(C(F)(F)F)c1` (stereo not shown) [Example 24], the IC50 on NK-1 and at hSERT was 0.01 to 100 nM throughout.
Regarding `CN(C)CCC1(COCc2cc(C(F)(F)F)cc(C(F)(F)F)c2)OCc2ccccc21` (stereo not shown) [Example 36, 2-(1-((3,5-Bis(trifluoromethyl)benzyloxy)methyl)-1,3-dihydroisobenzofuran-1-yl)-N,N-dimethylethanamine], the IC50 on NK-1 and on hSERT was 0.01 to 100 nM in each case.
In the case of `NCCC1(COCc2cc(-c3ccc(F)c(F)c3)cc(C(F)(F)F)c2)OCc2ccccc21` (stereo not shown) [Example 11], the IC50 on NK-1 is 0.01 to 100 nM; at hSERT, 100 to 300 nM.
On the same counts, the results for `CN(C)CCC1(COCc2cc(C(F)(F)F)cc(C(F)(F)F)c2)OCc2cc(C#N)ccc21` (stereo not shown) [Example 21] are 0.01 to 100 nM and above 300 nM.
For `NCCC1(COCc2cc(-c3ccccc3C(N)=O)cc(C(F)(F)F)c2)OCc2ccccc21` (stereo not shown) [Example 5] the same measures were above 300 nM and above 300 nM.
For `CN(C)CCC1(COCc2cc(-c3ccncc3)cc(C(F)(F)F)c2)OCc2ccccc21` (stereo not shown) [Example 19] the same measures were 0.01 to 100 nM and 0.01 to 100 nM.
As to `NCCC1(COCc2cc(N3CCOCC3)cc(C(F)(F)F)c2)OCc2ccccc21` (stereo not shown) [Example 16, 2-(1-((3-morpholino-5-(trifluoromethyl)benzyloxy)methyl)-1,3-dihydroisobenzofuran-1-yl)ethanamine], the figures for the IC50 on NK-1 and on hSERT were 0.01 to 100 nM and above 300 nM, respectively.
`CC(OCC1(CCN(C)C)OCc2ccccc21)c1cc(C(F)(F)F)cc(C(F)(F)F)c1` (stereo not shown) [Example 29]: the figures for the concentration for half-maximal inhibition (IC50) on NK-1 and on hSERT were 0.01 to 100 nM and above 300 nM, respectively.
For `CN(C)CCC1(COCc2cc(Cl)cc(Br)c2)OCc2ccccc21` (stereo not shown) [Example 31] the same measures were 100 to 300 nM and 0.01 to 100 nM.
`NCCC1(COCc2cc(C(F)(F)F)cc(C(F)(F)F)c2)OCc2ccccc21` (stereo not shown) [Example 35, 2-(1-((3,5-Bis(trifluoromethyl)benzyloxy)methyl)-1,3-dihydroisobenzofuran-1-yl)ethanamine]: the IC50 on NK-1 fell in the range of 0.01 to 100 nM; at hSERT, 100 to 300 nM.
For `NCCC1(COCc2cc(-c3ccc(Cl)cc3)cc(C(F)(F)F)c2)OCc2ccccc21` (stereo not shown) [Example 8] the same measures were 0.01 to 100 nM and 100 to 300 nM.
As for `NCCC1(COCc2cc(-c3cccc(Cl)c3)cc(C(F)(F)F)c2)OCc2ccccc21` (stereo not shown) [Example 13], the IC50 is 100 to 300 nM at NK-1 and above 300 nM on hSERT.
On the same counts, the results for `COc1ccc(-c2cc(COCC3(CCN)OCc4ccccc43)cc(C(F)(F)F)c2)cc1F` (stereo not shown) [Example 12] are 0.01 to 100 nM and above 300 nM.
On the same counts, the results for `CC(OCC1(CCN(C)C)OCc2ccccc21)c1cc(Br)cc(C(F)(F)F)c1` (stereo not shown) [Example 27] are 0.01 to 100 nM and 100 to 300 nM.
For `NCCC1(COCc2cc(-c3ccc(F)cc3F)cc(C(F)(F)F)c2)OCc2ccccc21` (stereo not shown) [Example 15] the same measures were 0.01 to 100 nM and 100 to 300 nM.
Regarding `CN(C)CCC1(COCc2cc(-c3ccc(C#N)cc3)cc(C(F)(F)F)c2)OCc2ccccc21` (stereo not shown) [Example 18], the values for the IC50 at NK-1 and on hSERT were 0.01 to 100 nM and 100 to 300 nM, respectively.
For `N#Cc1ccc(-c2cc(Cl)cc(COCC3(CCN)OCc4ccccc43)c2)cc1` (stereo not shown) [Example 34] the same measures were 0.01 to 100 nM and 0.01 to 100 nM.
For `CN(C)CCCC1(COCc2cc(C(F)(F)F)cc(C(F)(F)F)c2)OCc2ccccc21` (stereo not shown) [Example 38, 3-(1-((3,5-is(trifluoromethyl)benzyloxy)methyl)-1,3-dihydroisobenzofuran-1-yl)-N,N-dimethylpropan-1-amine] the same measures were 0.01 to 100 nM and above 300 nM.
On the same counts, the results for `N#Cc1cccc(-c2cc(COCC3(CCN)OCc4ccccc43)cc(C(F)(F)F)c2)c1` (stereo not shown) [Example 4] are 100 to 300 nM and 100 to 300 nM.
In the case of `NCCC1(COCc2cc(-c3cccc(F)c3)cc(C(F)(F)F)c2)OCc2ccccc21` (stereo not shown) [Example 10], the half-inhibitory concentration (IC50) at NK-1 lay in the range of 0.01 to 100 nM; on hSERT, 100 to 300 nM.
For `N#Cc1ccc2c(c1)COC2(CCN)COCc1cc(C(F)(F)F)cc(C(F)(F)F)c1` (stereo not shown) [Example 23] the same measures were 0.01 to 100 nM and 100 to 300 nM.
`CN(C)CCC1(COCc2cc(Br)cc(C(F)(F)F)c2)OCc2ccccc21` (stereo not shown) [Example 17, 2-(1-((3-bromo-5-(trifluoromethyl)benzyloxy)methyl)-1,3-dihydroisobenzofuran-1-yl)-N,N-dimethylethanamine]: the half-inhibitory concentration (IC50) at NK-1 and on hSERT was 0.01 to 100 nM throughout.
Regarding `NCCC1(COCc2cc(-c3ccccc3Cl)cc(C(F)(F)F)c2)OCc2ccccc21` (stereo not shown) [Example 14], the IC50 at NK-1 was 100 to 300 nM; at hSERT, above 300 nM.
For `NCCC1(COCc2cc(-c3ccncc3)cc(C(F)(F)F)c2)OCc2ccccc21` (stereo not shown) [Example 3] the same measures were 0.01 to 100 nM and 100 to 300 nM.
